According to patent US20220151896A1, “EFFICIENT SUNSCREEN COMPOSITIONS WITH DIETHYLAMINO HYDROXYBENZOYL HEXYL BENZOATE AND ORGANIC PARTICULATE UV FILTER” (BASF SE, priority 2019, published 2022):

What was measured:
[1] = Interfacial tension (polarity index) of emollients, Tensimat Densimat TD2000; assay type: physicochemical; conditions: interfacial tension oil/water
Source text: The term “polarity index” refers to non-polar or polar oils. Non-polar oils are mainly based on hydrocarbons and lack an electronegative element, such as oxygen. In contrast, polar oils contain heteroatoms that differ in electronegativity, which results in a dipole moment. However, such oils are still insoluble in water, i.e. hydrophob. The polarity index can be determined by measuring the interfacial tension between the respective oil and water.
Interfacial tension of the respective emollients as listed below was measured using a Tensimat Densimat TD2000.

[2] = general description of the commercial UV filter; cited from earlier work

For `O1[SiH2]O[SiH2]O[SiH2]O[SiH2]O[SiH2]1` (centres unmarked) [cyclopentasiloxane], the polarity index [1] was 32 mN/m.

For `CCCCC(CC)COC(=O)c1ccc(Nc2nc(Nc3ccc(C(=O)NC(C)(C)C)cc3)nc(Nc3ccc(C(=O)OCC(CC)CCCC)cc3)n2)cc1` (centres unmarked) [diethylhexyl-butamidotriazone, 4,4′-[[6-[[4-[[(1,1-dimethylethyl)amino]carbonyl]phenyl]amino]-1,3,5-triazin-2,4-diyl]diimino]bis-benzoic acid-bis(2-ethylhexyl)ester], the absorption maximum [2] is listed as 310 nm.
